# Measured values: publication PMC6397271 (Scientific Reports, 2019)
# Like-named read-outs stand apart in the source and are kept apart here.
# Tests used:
# S. aureus MRSA 12673 = assay: microbe, parasite or virus in culture; format: cell-based, Staphylococcus aureus; settings: for MIC: raw MIC
# In short: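 MICs were measured by microbroth dilution against MRSA in cation-adjusted Mueller-Hinton broth and enterococci in Brain Heart Infusion broth. Viability was read with resazurin dye.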
# S. aureus MRSA N315 = assay: microbe, parasite or virus in culture; format: cell-based, Staphylococcus aureus
# In short: (§1)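 Broth microdilution MIC, resazurin read-out, n=3. Media: cation-adjusted MH broth for MRSA (N315 reference; 6347 clinical h-VISA), BHI broth for enterococci. Growth aerobic, 37 °C, 24 h; inocula titrated by CFU/ml plating.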
# [1] = system: S. aureus MRSA hetero-VISA 6347; assay: microbe, parasite or virus in culture; format: cell-based, Staphylococcus aureus
# In short: as §1
# [2] = system: Enterococcus faecalis 3937158; assay: microbe, parasite or virus in culture; format: cell-based
# In short: as §1
# [3] = system: Enterococcus faecium 3934825; assay: microbe, parasite or virus in culture; format: cell-based
# In short: as §1
# sheep erythrocytes = assay: Erythrocyte lysis assay; format: cell-based; settings: 37 °C, 1 hour, A450 nm; for cell lysis (haemolysis): 10^8 cells/ml, vs 4% Triton X-100, triplicates
# Method: The protocol of the lysis assay is presented below.
# To obtain sheep erythrocytes, 5 ml of fresh blood was centrifuged at 1000 × g for 10 min and washed 3 times with 0.9% NaCl. Cell suspension (final concentration of 10^8 cells/ml) in a volume of 75 µl was added to each well of the 96-well microtiter plate and incubated at 37 °C in the presence of the tested compounds. The range of their concentrations was 100–0.049 µM (diluted in saline solution), which included that of MIC values for the tested strains of the bacteria.
# Plates with samples were incubated at 37 °C for 1 hour and then centrifuged at 1000 × g for 10 min to separate the unlysed erythrocytes. Next, the supernatant was transferred to a new plate. The absorbance (A) was measured spectrophotometrically at 450 nm of wavelength. The experiments were performed in triplicates.
# The haemolysis percentage was calculated according to the equation presented by Sharma et al.[43]. The percentage of haemolysis = [(A450nm of test compound treated sample-A450nm of buffer treated sample)/(A450nm of 4%TritonX-100 treated samples-A450nm of buffer treated sample)] × 100.
# [4] = system: bacterial strain not named; assay: Raw data of the MIC measurement (absorbance); format: cell-based; settings: concentration marked (MIC) in raw absorbance data
# Method: The strains were grown in Mueller-Hinton broth (MH cation-adjusted, Becton Dickinson) or Brain Heart Infusion broth (BHI, Becton Dickinson), respectively. The cultivation was carried out in an aerobic atmosphere at 37 °C for 24 hours and, afterwards, the bacterial cultures were diluted in geometric progression with a proper broth. Next, 100 µl of each dilution was inoculated in an agar plate and incubated at 37 °C for 24 h. The next procedures included determination of Colony Forming Units (CFU)/ml and minimal inhibitory concentration (MIC) of the compounds in question. The latter procedure was carried out according to the microbroth dilution technique using 96-well plates. The MICs were evaluated by using the metabolic assay based on the resazurin dye. The assay was performed in triplicates.
# [5] = BBB penetration, fluorescence microscopy of brain slices; format: in vivo, BALB/c male mice; settings: iv tail vein 60 mg/kg, 2 hours, coronal cryo-sections, excitation 490 nm, emission 521 nm, n = 5
# Method: In vivo experiments were performed on BALB/c male mice weighing between 20 and 30 g (the mouse model is widely used for estimation of drug BBB penetration). The animals (obtained from TAZD-CBU) were kept in a 12-hour day and night cycle at room temperature (20–22 °C), humidity 55–56% and fed with a standard diet and water ad libitum for at least 1 week before the experiment. Body temperature and weight were recorded on a regular daily schedule. It is confirmed that all procedures were carried out according to the guidelines outlined by the European Community Council Directive 2010/63/EEC, and they were approved by the local Ethical Committee Resolution 26/2014 (Bydgoszcz, Poland).
# Fl-[Lys^7(PEG4-Van)]TP10 was administered to the mouse (n = 5) tail vein at a dose of 60 mg/kg in a volume of 100 μl of saline.
# After 2 hours, the mice were sacrificed (by isoflurane overdose) and their brains were immediately removed from the cranium and cooled to 4 °C. Five, […] coronal cryo-sections of the brain were made starting from the frontal pole and moving to the occipital pole (HM 450 Sliding Microtome). The presence of the compound in question in the brain slices was visualized using a fluorescence microscope (Delta Optical IB-100, Delta Optical, Poland) at a fluorescence excitation and emission of 490 nm and 521 nm, respectively. […]
# [6] = same test as μM value, mean ± SD
# [7] = microbroth dilution, 96-well, resazurin, 37 °C, 24 h, mean ± SD, at least three independent experiments in triplicates
# [8] = raw MIC, first block, test a, repetition 1, read-out: MIC1a
# [9] = raw MIC, first block, test a, repetition 2, read-out: MIC2a
# [10] = raw MIC, first block, test a, repetition 3, read-out: MIC3a
# [11] = raw MIC, first block, test b, repetition 1, read-out: MIC1b
# [12] = raw MIC, first block, test b, repetition 2, read-out: MIC2b
# [13] = raw MIC, first block, test b, repetition 3, read-out: MIC3b
# [14] = raw MIC, test a, repetition 1, read-out: MIC1a
# [15] = raw MIC, test a, repetition 2, read-out: MIC2a
# [16] = raw MIC, test a, repetition 3, read-out: MIC3a
# [17] = raw MIC, test b, repetition 1, read-out: MIC1b
# [18] = raw MIC, test b, repetition 2, read-out: MIC2b
# [19] = raw MIC, test b, repetition 3, read-out: MIC3b
compound,measurement,setting,value
"CC[C@H](C)[C@H](NC(=O)[C@H](CCCCN)NC(=O)[C@H](CCCCN)NC(=O)[C@H](C)NC(=O)[C@H](CC(C)C)NC(=O)[C@H](C)NC(=O)[C@H](C)NC(=O)[C@H](CC(C)C)NC(=O)[C@H](C)NC(=O)[C@H](CCCCN)NC(=O)[C@H](CC(C)C)NC(=O)[C@H](CC(N)=O)NC(=O)[C@@H](NC(=O)[C@H](CCCCN)NC(=O)CNC(=O)[C@H](CC(C)C)NC(=O)[C@H](CC(C)C)NC(=O)[C@H](Cc1ccc(O)cc1)NC(=O)CNC(=O)[C@H](C)NC(=O)c1cn(CCOCCOCCOCCOCCC(=O)N[C@@]2(C)C[C@H](O[C@H]3[C@H](Oc4c5cc6cc4Oc4ccc(cc4Cl)[C@@H](O)[C@@H](NC(=O)[C@@H](CC(C)C)NC)C(=O)N[C@@H](CC(N)=O)C(=O)N[C@H]6C(=O)N[C@H]4C(=O)N[C@H](C(=O)N[C@H](C(=O)O)c6cc(O)cc(O)c6-c6cc4ccc6O)[C@H](O)c4ccc(c(Cl)c4)O5)O[C@H](CO)[C@@H](O)[C@@H]3O)O[C@@H](C)[C@H]2O)nn1)[C@@H](C)CC)C(=O)N[C@@H](CC(C)C)C(N)=O [conjugate II, Van-PEG4-TP10]",MIC,"S. aureus MRSA 12673; first block, test a, repetition 1, read-out: MIC1a",1.6 µM
same,MIC,"S. aureus MRSA 12673; first block, test a, repetition 2, read-out: MIC2a",3.2 µM
same,MIC,"S. aureus MRSA 12673; first block, test a, repetition 3, read-out: MIC3a",1.6 µM
same,MIC,"S. aureus MRSA 12673; first block, test b, repetition 1, read-out: MIC1b",1.6 µM
same,MIC,"S. aureus MRSA 12673; first block, test b, repetition 2, read-out: MIC2b",1.6 µM
same,MIC,"S. aureus MRSA 12673; first block, test b, repetition 3, read-out: MIC3b",1.6 µM
same,MIC,"S. aureus MRSA 12673; test a, repetition 1, read-out: MIC1a",6.33 µM
same,MIC,"S. aureus MRSA 12673; test a, repetition 2, read-out: MIC2a",12.66 µM
same,MIC,"S. aureus MRSA 12673; test a, repetition 3, read-out: MIC3a",6.33 µM
same,MIC,"S. aureus MRSA 12673; test b, repetition 1, read-out: MIC1b",6.33 µM
same,MIC,"S. aureus MRSA 12673; test b, repetition 2, read-out: MIC2b",6.33 µM
same,MIC,"S. aureus MRSA 12673; test b, repetition 3, read-out: MIC3b",6.33 µM
same,MIC in (μg/ml),S. aureus MRSA 12673; [6],6.3 ± 2.6 µg/mL
same,MIC,S. aureus MRSA N315; [7],1.6 ± 0.8 µM
same,MIC,S. aureus MRSA N315; [8],1.6 µM
same,MIC,S. aureus MRSA N315; [9],3.2 µM
same,MIC,S. aureus MRSA N315; [10],1.6 µM
same,MIC,S. aureus MRSA N315; [11],1.6 µM
same,MIC,S. aureus MRSA N315; [12],3.2 µM
same,MIC,S. aureus MRSA N315; [13],1.6 µM
same,MIC,S. aureus MRSA N315; [14],6.33 µM
same,MIC,S. aureus MRSA N315; [15],12.66 µM
same,MIC,S. aureus MRSA N315; [16],6.33 µM
same,MIC,S. aureus MRSA N315; [17],6.33 µM
same,MIC,S. aureus MRSA N315; [18],6.33 µM
same,MIC,S. aureus MRSA N315; [19],6.33 µM
same,MIC in (μg/ml),S. aureus MRSA N315; [6],6.3 ± 2.6 µg/mL
same,MIC,[1]; [7],3.1 ± 0.8 µM
same,MIC,[1]; [8],3.1 µM
same,MIC,[1]; [9],3.1 µM
same,MIC,[1]; [10],1.56 µM
same,MIC,[1]; [11],1.56 µM
same,MIC,[1]; [12],3.1 µM
same,MIC,[1]; [13],1.56 µM
same,MIC,[1]; [14],12.26 µM
same,MIC,[1]; [15],12.26 µM
same,MIC,[1]; [16],6.13 µM
same,MIC,[1]; [17],6.13 µM
same,MIC,[1]; [18],12.26 µM
same,MIC,[1]; [19],6.13 µM
same,MIC in (μg/ml),[1]; [6],12.3 ± 3.6 µg/mL
same,MIC,[2]; [7],25.0 ± 6.5 µM
same,MIC,[2]; [8],25 µM
same,MIC,[2]; [9],25 µM
same,MIC,[2]; [10],12.5 µM
same,MIC,[2]; [11],12.5 µM
same,MIC,[2]; [12],25 µM
same,MIC,[2]; [13],25 µM
same,MIC,[2]; [14],98.91 µM
same,MIC,[2]; [15],98.91 µM
same,MIC,[2]; [17],98.91 µM
same,MIC,[2]; [18],98.91 µM
same,MIC,[2]; [19],98.91 µM
same,MIC in (μg/ml),[2]; [6],98.9 ± 21.8 µg/mL
same,MIC,[3]; [7],25.0 ± 5.1 µM
same,MIC,[3]; [8],25 µM
same,MIC,[3]; [9],25 µM
same,MIC,[3]; [10],12.5 µM
same,MIC,[3]; [11],25 µM
same,MIC,[3]; [12],25 µM
same,MIC,[3]; [13],25 µM
same,MIC,[3]; [14],98.91 µM
same,MIC,[3]; [15],98.91 µM
same,MIC,[3]; [16],49.46 µM
same,MIC,[3]; [17],98.91 µM
same,MIC,[3]; [18],98.91 µM
same,MIC,[3]; [19],98.91 µM
same,MIC in (μg/ml),[3]; [6],98.9 ± 20.2 µg/mL
same,cell lysis (haemolysis),sheep erythrocytes; 12.5 µM,5%
same,cell lysis (haemolysis),sheep erythrocytes; 100 µM,77%
same,hemolysis at MIC concentrations,sheep erythrocytes; 6.25–0.78 μM,lack of hemolysis
same,MIC (marked in raw data),[4],"1,56 µM"
Fl-[Lys^7(PEG4-Van)]TP10 [conjugate IVa],presence in mouse brain slices (fluorescence),[5],presence of the conjugate coupled with fluorescein in the brain
